Measurements from publication PMC4955970, “Stable, synthetic analogs of diadenosine tetraphosphate inhibit rat and human P2X3 receptors and inflammatory pain” (Molecular Pain, 2016).
Entries after “also recorded” stand apart in the source; their conditions may differ. Like-named read-outs stand apart in the source and are kept apart here.

Legend:
rat P2X2 receptors = molecular target: T1, rat P2X2 receptors (Rattus norvegicus, UniProt P49653); experiment: Whole-cell patch clamp on HEK293 cells expressing rat P2X2 receptors (ATP-induced currents); type: cell-based; conditions: 1 µM; 10 µM ATP every 2 min
T1 construct: expressed in transfected cells; host or cells: HEK293
T1 sequence (P49653 1-472): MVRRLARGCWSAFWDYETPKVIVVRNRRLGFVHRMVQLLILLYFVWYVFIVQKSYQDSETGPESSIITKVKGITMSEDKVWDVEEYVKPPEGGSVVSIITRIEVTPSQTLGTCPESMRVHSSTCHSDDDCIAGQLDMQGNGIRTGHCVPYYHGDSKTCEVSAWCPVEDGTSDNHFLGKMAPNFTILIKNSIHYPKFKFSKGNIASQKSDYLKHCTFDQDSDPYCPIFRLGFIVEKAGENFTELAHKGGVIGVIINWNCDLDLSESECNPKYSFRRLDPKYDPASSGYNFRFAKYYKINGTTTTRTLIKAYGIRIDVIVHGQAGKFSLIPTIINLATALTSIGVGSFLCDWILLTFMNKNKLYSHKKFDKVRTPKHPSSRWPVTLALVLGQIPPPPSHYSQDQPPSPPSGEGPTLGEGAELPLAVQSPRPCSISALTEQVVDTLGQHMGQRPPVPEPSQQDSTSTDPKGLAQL

rat P2X4 receptors = molecular target: T2, rat P2X4 receptors (Rattus norvegicus, UniProt P51577); experiment: Whole-cell patch clamp on HEK293 cells expressing rat P2X4 receptors (ATP-induced currents); type: cell-based; conditions: 1 µM; 10 µM ATP every 2 min
T2 construct: expressed in transfected cells; host or cells: HEK293
T2 sequence (P51577 1-388): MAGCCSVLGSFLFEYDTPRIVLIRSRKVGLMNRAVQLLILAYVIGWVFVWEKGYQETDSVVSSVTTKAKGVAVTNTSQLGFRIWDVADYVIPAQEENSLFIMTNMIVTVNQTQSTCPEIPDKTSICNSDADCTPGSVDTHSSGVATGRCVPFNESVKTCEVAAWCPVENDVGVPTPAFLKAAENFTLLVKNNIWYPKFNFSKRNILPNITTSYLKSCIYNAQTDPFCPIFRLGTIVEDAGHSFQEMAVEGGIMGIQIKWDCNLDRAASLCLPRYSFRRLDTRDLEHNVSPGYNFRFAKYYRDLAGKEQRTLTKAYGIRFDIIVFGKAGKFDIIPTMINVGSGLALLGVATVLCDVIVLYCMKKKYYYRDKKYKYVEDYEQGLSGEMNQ

[1] = molecular target: T3, native P2X3Rs in TG neurons (Rattus norvegicus, UniProt P49654); experiment: Whole-cell recording of α,β-meATP currents in cultured trigeminal ganglion (TG) neurons; type: cell-based; conditions: read-out: inhibition of peak currents in TG neurons
T3 construct: endogenous in cells; host or cells: cultured rat trigeminal ganglion (TG) or dorsal root ganglion (DRG) neurons
T3 sequence (P49654 1-397): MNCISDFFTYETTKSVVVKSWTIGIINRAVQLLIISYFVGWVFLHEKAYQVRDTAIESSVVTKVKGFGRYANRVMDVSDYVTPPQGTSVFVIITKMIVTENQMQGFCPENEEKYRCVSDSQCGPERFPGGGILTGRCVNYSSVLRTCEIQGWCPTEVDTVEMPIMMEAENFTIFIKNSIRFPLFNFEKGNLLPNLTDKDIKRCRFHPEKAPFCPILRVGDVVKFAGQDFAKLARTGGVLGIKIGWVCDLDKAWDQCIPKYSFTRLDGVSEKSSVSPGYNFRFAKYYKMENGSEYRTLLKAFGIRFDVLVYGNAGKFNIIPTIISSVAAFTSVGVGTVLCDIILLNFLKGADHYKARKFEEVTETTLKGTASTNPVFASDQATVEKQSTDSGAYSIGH
Method: (§1) Rat trigeminal, nodose, or dorsal root ganglion (TG, NG, and DRG, respectivley) neurons in culture were prepared as described previously.[46],[47] Neurons were plated on poly-L-lysine (0.2 mg/ml)-coated Petri dishes and cultured for one to two days under an atmosphere containing 5% CO2. Cells were used within two days of plating when they lacked processes. HEK293T cells were prepared as reported previously[32],[48] and transfected with rat or human full-length P2X3 cDNA subcloned into pIRES2-EGFP (Clontech, Mountain View, CA, USA).
(§2) TG, NG, DRG, or HEK cells were recorded in the whole-cell configuration while being continuously superfused (at 2 ml/min) with control solution containing (in mM): 152 NaCl, 5 KCl, 1 MgCl2, 2 CaCl2, 10 glucose, and 10 HEPES; pH was adjusted to 7.4 with NaOH and osmolarity was adjusted to 320 mOsM with glucose. […] Responses to selective P2X3R agonist α,β-methylene-ATP (α,β-meATP; resistant to ectoATPase hydrolysis, Sigma-Aldrich) were measured using an EPC-9 amplifier operated by HEKA Patch Master software (HEKA Electronik, Germany). Cells were voltage-clamped at −70 mV. In most cells, series resistance was compensated by 80%. To determine EC50 values, dose-response curves were constructed for α,β-meATP by administering different agonist doses same cells and fitting data to a logistic equation (Origin 8.0, Microcal, Northampton, MA). […]

[2] = molecular target: T4, native P2X3Rs in TG neurons (Rattus norvegicus, UniProt P49654); experiment: as above; type: cell-based; conditions: read-out: inhibition of sustained residual component in TG neurons
T4 construct: endogenous in cells; host or cells: cultured rat trigeminal ganglion (TG) or dorsal root ganglion (DRG) neurons
T4 sequence (P49654 1-397): T3 sequence (P49654 1-397)
T4 sequence (P49653 1-472 partner): T1 sequence (P49653 1-472)
Method: as §1, §2

[3] = molecular target: T5, native P2X3Rs / P2X2/3Rs in NG neurons (Rattus norvegicus, UniProt P49653+P49654); experiment: Whole-cell recording of α,β-meATP currents in cultured nodose ganglion (NG) neurons; type: cell-based; conditions: read-out: inhibition of sustained residual component in NG neurons
T5 construct: effects of AppNHppA on native P2X3Rs in TG, DRG, and NG neurons were investigated; while NG neurons express heteromeric P2X2/3Rs subunits; endogenous in cells; host or cells: cultured rat nodose ganglion (NG) neurons
T5 sequence (P49654 1-397): T3 sequence (P49654 1-397)
T5 sequence (P49653 1-472): T1 sequence (P49653 1-472)
Method: as §1, §2

[4] = test system: native P2X3Rs / P2X2/3Rs in NG neurons; experiment: as above; type: cell-based, rat; conditions: 1 µM, 6 min; 10 µM α,β-meATP
Method: as §1, §2

SMILES: Nc1ncnc2c1ncn2[C@@H]1O[C@H](COP(=O)(O)OP(=O)(O)NP(=O)(O)OP(=O)(O)OC[C@H]2O[C@@H](n3cnc4c(N)ncnc43)[C@H](O)[C@@H]2O)[C@@H](O)[C@H]1O [AppNHppA, diadenosine 5′,5′′′-P^1,P^4-(β,γ-imido)tetraphosphate]
- HAD or partial agonism effect on P2X2R-mediated currents (rat P2X2 receptors): did not produce any HAD or partial agonism effects; also recorded: does not inhibit
- HAD or partial agonism effect on P2X4R-mediated currents (rat P2X4 receptors): did not produce any HAD or partial agonism effects; also recorded: does not inhibit
- inhibition at 1 µM [1]: 80.3 ± 4.4%
- inhibition at 1 µM [2]: 15 ± 6%
- inhibition at 1 µM [3]: 2 ± 4%
- inhibition of peak currents in NG neurons [4]: 16.8 ± 11.8%
